Assay results reported in patent publication US9695167B2, “Substituted triazolo[1,5-a]pyridines and triazolo[1,5-a]pyrazines as LSD1 inhibitors” (Incyte Corporation, priority 2014, dated 2017).
pIC50: −log10 of the molar value.

Molecular target: LSD-1 enzyme (LSD1/KDM1A) (Homo sapiens (Human), UniProt O60341)
Assay: biochemical
Procedure: LANCE LSD1/KDM1A demethylase assay—10 μL of 1 nM LSD-1 enzyme (ENZO BML-SE544-0050) in the assay buffer (50 mM Tris, pH 7.5, 0.01% Tween-20, 25 mM NaCl, 5 mM DTT) were preincubated for 1 hour at 25° C. with 0.8 μL compound/DMSO dotted in black 384 well polystyrene plates. […] After stopping the reactions plates were incubated for 30 minutes and read on a PHERAstar FS plate reader (BMG Labtech).

Structure (SMILES)	pIC50
Cc1ccc(-c2c(-c3ccc(C#N)cc3)cc(OC[C@@H]3CCNC3)c3ncnn23)cc1 [Example 1, 4-{5-(4-methylphenyl)-8-[(3R)-pyrrolidin-3-ylmethoxy][1,2,4]triazolo[1,5-a]pyridin-6-yl}benzonitrile]	> 7.30
Cc1ccc(-c2c(-c3ccc(C#N)cc3)cc(CCC3CCNC3)c3ncnn23)cc1 (centres unmarked) [Example 2, 4-[5-(4-methylphenyl)-8-(2-pyrrolidin-3-ylethyl)[1,2,4]triazolo[1,5-a]pyridin-6-yl]benzonitrile]	> 7.30
CN[C@H]1CCN(Cc2cc(-c3ccc(C#N)cc3)c(-c3ccc(C)cc3)n3ncnc23)C1 [Example 10, 4-[8-{[(3S)-3-(methylamino)pyrrolidin-1-yl]methyl}-5-(4-methylphenyl)[1,2,4]triazolo[1,5-a]pyridin-6-yl]benzonitrile]	> 7.30
CN[C@@H]1CCN(Cc2cc(-c3ccc(C#N)cc3)c(-c3ccc(C)cc3)n3ncnc23)C1 [Example 11, 4-[8-{[(3R)-3-(methylamino)pyrrolidin-1-yl]methyl}-5-(4-methylphenyl)[1,2,4]triazolo[1,5-a]pyridin-6-yl]benzonitrile]	> 7.30
Cc1ccc(-c2c(-c3ccc(C#N)cc3)nc(OC[C@@H]3CCNC3)c3ncnn23)cc1 [Example 12, 4-{5-(4-methylphenyl)-8-[(3R)-pyrrolidin-3-ylmethoxy][1,2,4]triazolo[1,5-a]pyrazin-6-yl}benzonitrile]	> 7.30
